Assays:
[1] = tested on: vascular cell outgrowth from muscle explants; assay: Explant invasion assay in 3D collagen; type: cell-based, mouse; conditions: TSP1 1 μg/ml
Procedure: Muscle biopsies from the pectoralis major muscle of 8 to 12 week old wild type or transgenic mice were harvested and explanted into 100 μl of type I collagen gel in 96-well tissue culture plates as described (Isenberg et al., Matrix Biol 24:110-123, 2005). Following gelation, the embedded explants were overlayed with 75 μl of EGM+2% FCS in the presence or absence of a dose range of DETA/NO (0.01-1000 μM) and other indicated treatments and then incubated at 37° C. and 5% CO2 for 7 days, at which time maximum vascular cell migration through the matrix was measured.

[2] = tested on: murine ASMC (WT, CD36 null, CD47 null); assay: Murine ASMC adhesion on type I collagen; type: cell-based, mouse; conditions: CD47 null MASMC
Procedure: Murine ASMC were obtained from aortic segments harvested sterilely from C57B1/6 CD47 null or CD36 null mice as described (Ray et al., Methods Cell Sci 23:185-188, 2001) and cultured in SM-GM (Cambrex)+20% FCS. In the case of CD36 null cells, culture flasks were pre-coated with 1% gelatin prior to cell plating. Wild type C57B1/6 ASMC cultures were prepared as previously described (Isenberg et al., Matrix Biol 24:110-123, 2005). Cell culture purity was determined by immunohistochemistry staining for α-smooth muscle actin. Cells were used within passage 1 to 4 to minimize overgrowth of other cell types.
Cell adhesion was carried out in 96-well culture plates. After pre-coating wells with type I collagen (3 μg/ml in DPBS) harvested cells were plated at a density of 1×10^4 cells/well in medium plus 0.1% BSA and treatment agents and incubated in 5% CO2 for 1 h. Wells were washed with PBS and cells fixed with 1% glutaraldehyde for 10 min., washed and stained with 1% crystal violet for 20 min. Excess stain was rinsed away, adherent cells treated with 10% acetic acid, and plates read at 570 nm.

[3] = tested on: murine aortic VSMC (WT, TSP1 null, CD47 null); assay: 3D collagen gel contraction assay, murine VSMC; type: cell-based, mouse; conditions: for relaxation of pre-contracted VSMC by NO: TSP1 2.2 nM
Procedure: Type I collagen gel (3 mg/ml) with 10×M199 (Gibco, Grand Island, N.Y.) at a 10:1 ratio of collagen to medium was prepared, pH balanced with NaOH and seeded with either HAVSMC or VSMC harvested from aortic segments from C57B16 WT or TSP1 null mice (50,000 cells in 75 μl of gel/well) and aliquoted to 96-well plates (Nunc, Denmark). Plates were incubated for 12 h 37° C. and 5% CO2 allowing for gelation and cell spreading, gently released from the well walls and incubated in serum and additive deficient growth medium with 0.1% BSA in the presence of the indicated treatment agents for 10 h. Contraction was determined by measuring the diameter in perpendicular planes (x, y) of each disk, an average obtained and surface area calculated as (d/2)^2π. Experiments were performed in triplicate. Results represent the mean±SD of at least three separate experiments.
Collagen gel contraction assays were performed using murine derived VSMC (7.5×10^4 cells/gel) as described (Isenberg et al., Blood 2006; Example 2). Wells receiving TSP1 were pre-incubated with the indicated concentrations of agent overnight. Contraction was initiated with either 10% FCS or sphingosine 1-phosphate (S1P, 100 nM).

human platelets = assay: Human platelet adhesion assay; type: cell-based; conditions: for stimulation of adhesion by TSP1: fibrinogen, in the presence of NO
Procedure: Bacteriological Petri dishes (35×10 mm, Becton Dickinson Labware) were pre-coated with collagen (3 μg/ml) or fibrinogen (15 μg/mL) overnight. Following aspiration of non-adherent matrix, dishes were blocked with 1% BSA. Fresh platelets were washed and suspended in Tyrode's buffer and allowed to adhere for 30 minutes. Plates were washed with PBS, fixed with 0.5% glutaraldehyde and stained with 0.02% toluidine blue. Adherent platelets were counted microscopically. In some experiments platelets were pre-incubated with the Rap1 geranylgeranyltransferase inhibitor GGTI-298 (10 μM) for 30 minutes prior to initiating adhesion.

VASP = assay: Phospho-Ser239 VASP Western blotting in platelets; type: cell-based, human; conditions: 8Br-cGMP 100 μM, TSP1 2.2 nM
Procedure: Washed human platelets (resuspended in Tyrode's buffer to 3×10^8 platelets/mL to a final volume of 0.5 mL) were incubated at 37° C. for 30 minutes before treatment. TSP1 was added 15 minutes prior to treatment. Immediately following treatment, platelets were pelleted at 13,000×g at 4° C. for 15 seconds and resuspended in 1 mL of a lysis buffer containing 10 mM Tris-HCl (pH 7.5), 150 mM NaCl, 1 mM EDTA, 1 mM Na3VO4, 40 mM NaF, 1 μg/mL aprotinin, 1 μg/mL leupeptin, 1 mM phenylmethysulfonylfluoride and 1% […]. This suspension was placed at 4° C. with gentle agitation for 5 minutes before centrifugation at 13000×g for 5 minutes at 4° C. 5 μg lysates were electrophoresed on 4-12% Bis-Tris NuPAGE gels, transferred to Immobilon PVDF membranes and probed with a rabbit polyclonal antiserum against Serine 239-phosphorylated VASP (Santa Cruz Biotechnology, Santa Cruz, Calif.).

[4] = tested on: white hairless Yucatan miniature pig VSMC; assay: Porcine VSMC adhesion assay; type: cell-based; conditions: TSP1 0.022-2.2 nM
Procedure: White hairless Yucatan miniature pig VSMC were plated at 10,000 cells/well onto 96-well plates (Maxisorb, Nunc) precoated with type I collagen (3 μg/ml). Cells were incubated for 1 h in basal medium (lacking additives and serum) with 0.1% BSA and the indicated concentrations of TSP1 and DEA/NO. Plates were then washed with PBS, fixed with glutaraldehyde, stained with crystal violet, and washed. Absorbed stain was solubilized with acetic acid from fixed cells and the resulting color signal determined on a MR580Microelisa Auto Reader, (Dynatech, Alexandria, Va.) at 450 nm wavelength. In other experiments cell were treated with a CD47 or mismatch control morpholino as described for 48 h prior to harvesting.

Question: For “TSP1: thrombospondin-1 prepared from human platelets”, which “ability to antagonize NO-stimulated vascular outgrowth” value ([1]; CD36-null explants) is on record?
Answer: preserved

Question: And the “ability to antagonize NO-stimulated vascular outgrowth” value ([1]; CD47-null explants)?
Answer: lost

Question: What about the NO-stimulated adhesion ([2]; 22 nM) of the same substance?
Answer: only moderately inhibited

Question: What about the NO-stimulated adhesion ([2]; concentrations up to 2.2 nM) of the same substance?
Answer: had no effect

Question: What about the “relaxation of pre-contracted VSMC by NO” value ([3]; CD47 null VSMC) of the same substance?
Answer: absent

Question: And the “contractile response to S1P” value ([3]; TSP1 null murine VSMC)?
Answer: increased the contractile response of TSP1 null cells to S1P

Question: And the “relaxation of pre-contracted VSMC by NO” value ([3]; wild type cells)?
Answer: completely inhibited

Question: And the “basal adhesion of platelets on type I collagen and fibrinogen” value (human platelets; TSP1 2.2 nM)?
Answer: moderately increased basal adhesion

Question: What about the “decrease in platelet adhesion in response to exogenous NO” value (human platelets; fibrinogen or collagen, DEA/NO 10 μM) of the same substance?
Answer: lost

Question: And the “stimulation of adhesion by TSP1” value (human platelets)?
Answer: 55±9%

Question: And the “stimulation of adhesion by TSP1” value (human platelets; following Rap1 blockade with GGTI-298)?
Answer: 25±8%

Question: And the “VASP phosphorylation at Ser239” value (VASP)?
Answer: inhibited

Question: What about the “NO-stimulated adhesion to type I collagen” value [4] of the same substance?
Answer: inhibited

From US8865672B2, “Prevention of tissue ischemia and related methods” (The United States of America, as represented by the …, priority 2006, dated 2014)
